Reference: patent US20170050957A1, “4-AMINO-6-(HETEROCYCLIC)PICOLINATES AND 6-AMINO-2-(HETEROCYCLIC)PYRIMIDINE-4-CARBOXYLATES AND THEIR USE AS HERBICIDES” (Dow AgroSciences LLC, priority 2013, published 2017)
Where two headings read alike, the source gives them in different places.

How the values were obtained:
[1] = test system: Key Broadleaf Weed and Crop Species; test: Post-emergent Test II herbicidal activity (Table 15); format: in vivo; conditions: post-emergence, 336 h, 14 d; for pest or weed control at 35 g/ha: 35 g ai/ha; for pest or weed control at 70 g/ha: 70 g ai/ha; for pest or weed control at 140 g/ha: 140 g ai/ha
Procedure, shortened: (§1)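 Post-emergence spray; seedlings 7-21 d old, 1st-2nd true leaf; 187 L/ha; serial rates 1×-1/16×; solvent blank controls; subirrigated; visual % injury at 14 d.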

[2] = test system: Key Grass and Sedge Weeds as well as Grass Crops; test: Post-emergent Test II herbicidal activity (Table 16); format: in vivo; conditions: post-emergence, 336 h, 14 days after application; for pest or weed control at 35 g/ha: 35 g ai/ha; for pest or weed control at 70 g/ha: 70 g ai/ha; for pest or weed control at 140 g/ha: 140 g ai/ha
Procedure, shortened: as §1

[3] = Abutilon theophrasti, velvetleaf (Abutilon theophrasti), read-out: Visual Growth Reduction (%) 14 Days After Application, ABUTH
[4] = Amaranthus retroflexus, redroot pigweed (Amaranthus retroflexus), read-out: Visual Growth Reduction (%) 14 Days After Application, AMARE
[5] = Brassica napus, oilseed rape, canola (Brassica napus), read-out: Visual Growth Reduction (%) 14 Days After Application, BRSNN
[6] = Chenopodium album, lambsquarters (Chenopodium album), read-out: Visual Growth Reduction (%) 14 Days After Application, CHEAL
[7] = Euphorbia heterophylla, wild poinsettia (Euphorbia heterophylla), read-out: Visual Growth Reduction (%) 14 Days After Application, EPHHL
[8] = Helianthus annuus, sunflower (Helianthus annuus), read-out: Visual Growth Reduction (%) 14 Days After Application, HELAN
[9] = Cyperus esculentus, yellow nutsedge (Cyperus esculentus), read-out: Visual Growth Reduction (%) 14 Days After Application CYPES
[10] = Echinochloa crus-galli, barnyardgrass (Echinochloa crus-galli), read-out: Visual Growth Reduction (%) 14 Days After Application ECHCG
[11] = Oryza sativa, rice (Oryza sativa), read-out: Visual Growth Reduction (%) 14 Days After Application ORYSA
[12] = Setaria faberi, giant foxtail (Setaria faberi), read-out: Visual Growth Reduction (%) 14 Days After Application SETFA
[13] = Triticum aestivum, wheat, spring (Triticum aestivum), read-out: Visual Growth Reduction (%) 14 Days After Application TRZAS
[14] = Zea mays, maize, corn (Zea mays), read-out: Visual Growth Reduction (%) 14 Days After Application ZEAMX

| Structure (SMILES) | melting point | pest or weed control at 35 g/ha [1, 3] | pest or weed control at 70 g/ha [1, 3] | pest or weed control at 140 g/ha [1, 3] | pest or weed control at 35 g/ha [1, 4] | pest or weed control at 70 g/ha [1, 4] | pest or weed control at 140 g/ha [1, 4] | pest or weed control at 35 g/ha [1, 5] | pest or weed control at 70 g/ha [1, 5] | pest or weed control at 140 g/ha [1, 5] | pest or weed control at 35 g/ha [1, 6] | pest or weed control at 70 g/ha [1, 6] | pest or weed control at 140 g/ha [1, 6] | pest or weed control at 35 g/ha [1, 7] | pest or weed control at 70 g/ha [1, 7] | pest or weed control at 140 g/ha [1, 7] | pest or weed control at 35 g/ha [1, 8] | pest or weed control at 70 g/ha [1, 8] | pest or weed control at 140 g/ha [1, 8] | pest or weed control at 35 g/ha [2, 9] | also measured |
| --- | --- | --- | --- | --- | --- | --- | --- | --- | --- | --- | --- | --- | --- | --- | --- | --- | --- | --- | --- | --- | --- |
| COC(=O)c1nc(-c2ccc3sccc3c2)nc(N)c1OC [Compound 3.08] | 125 to 127 °C | 0 to 29% | 30 to 44% | 30 to 44% | 0 to 29% | 30 to 44% | 60 to 74% | 0 to 29% | 0 to 29% | 30 to 44% | 85 to 94% | 85 to 94% | 85 to 94% | 60 to 74% | 75 to 84% | 85 to 94% | 60 to 74% | 75 to 84% | 85 to 94% | 0 to 29% | pest or weed control at 70 g/ha [2, 9]: 0 to 29%; pest or weed control at 140 g/ha [2, 9]: 30 to 44%; pest or weed control at 35 g/ha [2, 10]: 0 to 29%; pest or weed control at 70 g/ha [2, 10]: 0 to 29%; pest or weed control at 140 g/ha [2, 10]: 75 to 84%; pest or weed control at 35 g/ha [2, 11]: 0 to 29%; pest or weed control at 70 g/ha [2, 11]: 0 to 29%; pest or weed control at 140 g/ha [2, 11]: 0 to 29%; pest or weed control at 35 g/ha [2, 12]: 0 to 29%; pest or weed control at 70 g/ha [2, 12]: 0 to 29%; pest or weed control at 140 g/ha [2, 12]: 0 to 29%; pest or weed control at 35 g/ha [2, 13]: 45 to 59%; pest or weed control at 70 g/ha [2, 13]: 60 to 74%; pest or weed control at 140 g/ha [2, 13]: 60 to 74%; pest or weed control at 35 g/ha [2, 14]: 30 to 44%; pest or weed control at 70 g/ha [2, 14]: 60 to 74%; pest or weed control at 140 g/ha [2, 14]: 75 to 84% |
| Nc1cc(-c2ccc3ccsc3c2)nc(C(=O)O)c1Cl [Compound 3.16] | 176 to 177 °C | 60 to 74% | 60 to 74% | 75 to 84% | 85 to 94% | 95 to 100% | 85 to 94% | 0 to 29% | 0 to 29% | 45 to 59% | 85 to 94% | 85 to 94% | 85 to 94% | 60 to 74% | 60 to 74% | 60 to 74% | 0 to 29% | 0 to 29% | 0 to 29% | 0 to 29% | pest or weed control at 70 g/ha [2, 9]: 0 to 29%; pest or weed control at 140 g/ha [2, 9]: 45 to 59%; pest or weed control at 35 g/ha [2, 10]: 75 to 84%; pest or weed control at 70 g/ha [2, 10]: 75 to 84%; pest or weed control at 140 g/ha [2, 10]: 75 to 84%; pest or weed control at 35 g/ha [2, 11]: 0 to 29%; pest or weed control at 70 g/ha [2, 11]: 0 to 29%; pest or weed control at 140 g/ha [2, 11]: 0 to 29%; pest or weed control at 35 g/ha [2, 12]: 0 to 29%; pest or weed control at 70 g/ha [2, 12]: 0 to 29%; pest or weed control at 140 g/ha [2, 12]: 0 to 29%; pest or weed control at 35 g/ha [2, 13]: 0 to 29%; pest or weed control at 70 g/ha [2, 13]: 0 to 29%; pest or weed control at 140 g/ha [2, 13]: 0 to 29%; pest or weed control at 35 g/ha [2, 14]: 60 to 74%; pest or weed control at 70 g/ha [2, 14]: 60 to 74%; pest or weed control at 140 g/ha [2, 14]: 75 to 84% |
